# From ChEMBL document CHEMBL1122521, “Nucleic acid related compounds. 47. Synthesis and biological activities of pyrimidine and purine "acyclic" nucleoside analogues” (J Med Chem, 1984)
# Test system: Human alphaherpesvirus 2
# Test: Concentration required to reduce cytopathogenicity of Herpes simplex virus type 2 (strain G) by 50% in primary rabbit kidney (PRK) cells
# Type: functional
# Conditions: not given
row,SMILES,ID50
1,O=c1[nH]c(=O)n([C@H]2C[C@H](O)[C@@H](CO)O2)cc1I [IDOXURIDINE],0.3 µg/mL
2,CNc1nc2c(=O)[nH]c(N)nc2n1COCCO,3 µg/mL
3,O=c1[nH]c(=O)n(COCCO)cc1I,>400 µg/mL
4,Nc1nc2c(nc(I)n2COCCO)c(=O)[nH]1,0.4 µg/mL
5,CC(=O)OCCOCn1cnc2c(Cl)nc(Cl)nc21,>10 µg/mL
6,Cc1cn(COCCO)c(=O)[nH]c1=O,>400 µg/mL
7,CN(C)c1nc2c(=O)[nH]c(N)nc2n1COCCO,250 µg/mL
8,O=c1[nH]c(=O)n(COCCO)cc1F,>400 µg/mL

# Test system: Human alphaherpesvirus 1
# Test: Concentration required to reduce cytopathogenicity of Herpes simplex virus type 1 (strain KOS) by 50% in primary rabbit kidney (PRK) cells
# Type: functional
# Conditions: not given
row,SMILES,ID50
1,O=c1[nH]c(=O)n([C@H]2C[C@H](O)[C@@H](CO)O2)cc1I [IDOXURIDINE],0.1 µg/mL
2,CNc1nc2c(=O)[nH]c(N)nc2n1COCCO,7 µg/mL
3,O=c1[nH]c(=O)n(COCCO)cc1I,>400 µg/mL
4,Nc1nc2c(nc(I)n2COCCO)c(=O)[nH]1,0.4 µg/mL
5,CC(=O)OCCOCn1cnc2c(Cl)nc(Cl)nc21,2 µg/mL
6,Cc1cn(COCCO)c(=O)[nH]c1=O,>400 µg/mL
7,CN(C)c1nc2c(=O)[nH]c(N)nc2n1COCCO,30 µg/mL
8,O=c1[nH]c(=O)n(COCCO)cc1F,>400 µg/mL

# Test system: L1210
# Test: Inhibitory concentration required to reduce [14C-2]-dUrd incorporation into cellular DNA by 50% in Murine Leukemia L1210 cells
# Type: functional
# Conditions: Mus musculus, read-out: ID50 (the source's name)
row,SMILES,IC50
1,O=c1[nH]c(=O)n([C@H]2C[C@H](O)[C@@H](CO)O2)cc1I [IDOXURIDINE],0.82 µg/mL

# Test system: L1210
# Test: Inhibitory concentration required to reduce [3H-methyl]-dThd C incorporation into cellular DNA by 50% in Murine Leukemia L1210 cells
# Type: functional
# Conditions: Mus musculus, read-out: ID50 (the source's name)
row,SMILES,IC50
1,O=c1[nH]c(=O)n([C@H]2C[C@H](O)[C@@H](CO)O2)cc1I [IDOXURIDINE],4.3 µg/mL
2,CNc1nc2c(=O)[nH]c(N)nc2n1COCCO,> 500 µg/mL
3,O=c1[nH]c(=O)n(COCCO)cc1I,> 1000 µg/mL
4,Nc1nc2c(nc(I)n2COCCO)c(=O)[nH]1,> 1000 µg/mL
5,CC(=O)OCCOCn1cnc2c(Cl)nc(Cl)nc21,412 µg/mL
6,Cc1cn(COCCO)c(=O)[nH]c1=O,> 1000 µg/mL
7,CN(C)c1nc2c(=O)[nH]c(N)nc2n1COCCO,> 500 µg/mL
8,O=c1[nH]c(=O)n(COCCO)cc1F,> 1000 µg/mL

# Test system: L1210
# Test: Inhibitory concentration required to reduce [3H1',2']dUrd incorporation into cellular DNA by 50% in Murine Leukemia L1210 cells
# Type: functional
# Conditions: Mus musculus, read-out: ID50 (the source's name)
row,SMILES,IC50
1,O=c1[nH]c(=O)n(COCCO)cc1I,> 1000 µg/mL
2,CC(=O)OCCOCn1cnc2c(Cl)nc(Cl)nc21,98 µg/mL
3,Cc1cn(COCCO)c(=O)[nH]c1=O,> 1000 µg/mL
4,O=c1[nH]c(=O)n(COCCO)cc1F,> 1000 µg/mL

# Test system: L1210
# Test: Inhibitory concentration required to reduce [3H1',2']dUrd incorporation into cellular DNA by 50 %
# Type: functional
# Conditions: Mus musculus, read-out: ID50 (the source's name)
row,SMILES,IC50
1,CNc1nc2c(=O)[nH]c(N)nc2n1COCCO,> 500 µg/mL
2,Nc1nc2c(nc(I)n2COCCO)c(=O)[nH]1,> 1000 µg/mL
3,CN(C)c1nc2c(=O)[nH]c(N)nc2n1COCCO,> 500 µg/mL

# Test system: L1210
# Test: Inhibitory concentration required to reduce cell growth of Murine Leukemia L1210 cells
# Type: functional
# Conditions: Mus musculus, read-out: ID50 (the source's name)
row,SMILES,IC50
1,O=c1[nH]c(=O)n([C@H]2C[C@H](O)[C@@H](CO)O2)cc1I [IDOXURIDINE],61 µg/mL
2,CNc1nc2c(=O)[nH]c(N)nc2n1COCCO,> 500 µg/mL
3,O=c1[nH]c(=O)n(COCCO)cc1I,> 1000 µg/mL
4,Nc1nc2c(nc(I)n2COCCO)c(=O)[nH]1,39 µg/mL
5,CC(=O)OCCOCn1cnc2c(Cl)nc(Cl)nc21,12 µg/mL
6,Cc1cn(COCCO)c(=O)[nH]c1=O,> 1000 µg/mL
7,CN(C)c1nc2c(=O)[nH]c(N)nc2n1COCCO,> 500 µg/mL
8,O=c1[nH]c(=O)n(COCCO)cc1F,> 1000 µg/mL

# Test system: not listed separately
# Test: Inhibitory concentration required to reduce incorporation of 2-deoxythymidine (dThd) into DNA of Primary Rabbit kidney (PRK) cell cultures
# Type: functional
# Conditions: Oryctolagus cuniculus, read-out: ID50 (the source's name)
row,SMILES,IC50
1,O=c1[nH]c(=O)n([C@H]2C[C@H](O)[C@@H](CO)O2)cc1I [IDOXURIDINE],2 µg/mL
2,CNc1nc2c(=O)[nH]c(N)nc2n1COCCO,> 400 µg/mL
3,O=c1[nH]c(=O)n(COCCO)cc1I,> 400 µg/mL
4,Nc1nc2c(nc(I)n2COCCO)c(=O)[nH]1,≥ 350 µg/mL
5,CC(=O)OCCOCn1cnc2c(Cl)nc(Cl)nc21,10 µg/mL
6,Cc1cn(COCCO)c(=O)[nH]c1=O,> 400 µg/mL
7,CN(C)c1nc2c(=O)[nH]c(N)nc2n1COCCO,> 400 µg/mL
8,O=c1[nH]c(=O)n(COCCO)cc1F,> 400 µg/mL

# Test system: not listed separately
# Test: Inhibitory concentration required to reduce incorporation of 2-deoxyuridine (dUrd) into DNA of Primary Rabbit kidney (PRK) cell cultures
# Type: functional
# Conditions: Oryctolagus cuniculus, read-out: ID50 (the source's name)
row,SMILES,IC50
1,O=c1[nH]c(=O)n([C@H]2C[C@H](O)[C@@H](CO)O2)cc1I [IDOXURIDINE],0.3 µg/mL
2,CNc1nc2c(=O)[nH]c(N)nc2n1COCCO,> 400 µg/mL
3,O=c1[nH]c(=O)n(COCCO)cc1I,> 400 µg/mL
4,Nc1nc2c(nc(I)n2COCCO)c(=O)[nH]1,≥ 250 µg/mL
5,CC(=O)OCCOCn1cnc2c(Cl)nc(Cl)nc21,2 µg/mL
6,Cc1cn(COCCO)c(=O)[nH]c1=O,> 400 µg/mL
7,CN(C)c1nc2c(=O)[nH]c(N)nc2n1COCCO,> 400 µg/mL
8,O=c1[nH]c(=O)n(COCCO)cc1F,> 400 µg/mL

# Test system: Vesicular stomatitis virus
# Test: Concentration required to reduce cytopathogenicity of Vesicular stomatitis virus by 50% in primary rabbit kidney (PRK) cells
# Type: functional
# Conditions: not given
row,SMILES,ID50
1,O=c1[nH]c(=O)n([C@H]2C[C@H](O)[C@@H](CO)O2)cc1I [IDOXURIDINE],>400 µg/mL
2,CNc1nc2c(=O)[nH]c(N)nc2n1COCCO,>400 µg/mL
3,Nc1nc2c(nc(I)n2COCCO)c(=O)[nH]1,>400 µg/mL
4,CN(C)c1nc2c(=O)[nH]c(N)nc2n1COCCO,>400 µg/mL

# Test system: not listed separately
# Test: Ratio of ID50 for dThd or dUrd incorporation to ID50 for HSV-1, HSV-2 or VV(whatever was lowest)
# Type: functional
# Conditions: not given
row,SMILES,Antiviral index
1,O=c1[nH]c(=O)n([C@H]2C[C@H](O)[C@@H](CO)O2)cc1I [IDOXURIDINE],3
2,CNc1nc2c(=O)[nH]c(N)nc2n1COCCO,133
3,Nc1nc2c(nc(I)n2COCCO)c(=O)[nH]1,625
4,CC(=O)OCCOCn1cnc2c(Cl)nc(Cl)nc21,1
5,CN(C)c1nc2c(=O)[nH]c(N)nc2n1COCCO,13
